Here are results for two molecules from patent USRE38520E1, “Erythromycin derivatives, method for preparing same, and use thereof as drugs” (Aventis Pharma S.A., priority 1996, dated 2004).

Holding throughout (assay): Method of dilutions in liquid medium (M.I.C.)
Format in all cases: cell-based
Details in all cases: incubation twenty-four hours at 37° C.

Test [1] has as its system Streptoccocus faecalis group C 02D2UCI. The protocol:
(§1) Method of Dilutions in Liquid Medium A series of tubes were prepared into which the same quantity of sterile nutritive medium is distributed. Increasing quantities of the product to be studied are distributed into each tube, then each tube is seeded with a bacterial strain. After incubation for twenty-four hours in a heating chamber at 37° C., the growth inhibition is evaluated by transillumination, which permits the minimal inhibitory concentrations (M.I.C.) to be determined, expressed in micrograms/cm^3.

Test [2] deals with Streptoccocus faecium group D 02D2UCI. The protocol: as §1
For test [3], the system named is Streptoccocus pyogenes group A 02A1UCI. The protocol: as §1
Test [4] has as its system Streptoccocus pneumoniae 031515. The protocol:
as §1

Test [5] deals with Streptoccocus agalactae group B 02B1UTI. On the procedure: as §1
The subject of test [6] is Streptoccocus sp. group G 02GRGR5. On the procedure: as §1
For test [7], the system named is Streptoccocus aritis 02mmCH1. On the procedure:
as §1

The test system of test [8] is Streptoccocus agalactae group B 02B1811. On the procedure:
as §1

Test [9] has as its system Staphylococtus aureus 011UC4. The protocol:
as §1

The subject of test [10] is Streptoccocus aritis 02mmGR01. On the procedure: as §1

In the case of “11,12-dideoxy-3-de((2,6-dideoxy-3-C-methyl-3-O-methyl-alpha-L-ribohexopyranosyl)oxy)-3-hydroxy-6-O-methyl-12,11-(oxycarbonyl(2-(3-(4-quinolinyl)propyl)hydrazono)) erythromycin [Ex. 1]”, the “minimal inhibitory concentrations (M.I.C.)” value is given as 0.04 micrograms/cm^3 in test [1]; 0.04 micrograms/cm^3 in test [2]; 0.04 micrograms/cm^3 in test [3]; 0.6 micrograms/cm^3 in test [4]; “≦0.02 micrograms/cm^3” in test [5]; 0.04 micrograms/cm^3 in test [6]. The “minimal inhibitory concentrations (M.I.C.)” value is on record as 0.3 micrograms/cm^3 in test [7], 0.6 micrograms/cm^3 in [8], 0.3 micrograms/cm^3 in test [9] and 0.15 micrograms/cm^3 in test [10].

Regarding `CC[C@H]1OC(=O)[C@H](C)[C@@H](O)[C@H](C)[C@@H](O[C@@H]2O[C@H](C)C[C@H](N(C)C)[C@H]2O)[C@](C)(OC)C[C@@H](C)C(=O)[C@H](C)[C@H]2N(CCCCn3cnc(-c4cccnc4)c3)C(=O)O[C@]12C` [Ex. 2, 11,12-dideoxy-3-d((2,6-dideoxy-3-C-methyl-3-O-methyl-alpha-L-ribohexopyranosyl)oxy)-3-hydroxy-6-O-methyl-12,11-(oxycarbonyl((4-(4-(3-pyridinyl)-1H-imidazol-1-yl)-butyl)imino))-erythromycin], the “minimal inhibitory concentrations (M.I.C.)” value in test [1] came out at 0.3 micrograms/cm^3; in test [2], 0.3 micrograms/cm^3; in test [3], 0.15 micrograms/cm^3; in [4], 1 micrograms/cm^3; in [5], 0.04 micrograms/cm^3; in [6], 0.15 micrograms/cm^3. For the same molecule, the entries for the “minimal inhibitory concentrations (M.I.C.)” value in test [7], in test [8] and in test [10] were 0.34 micrograms/cm^3, 1.2 micrograms/cm^3 and 0.6 micrograms/cm^3, respectively.
